# Results as given in patent publication US20080096251A1, “Invertebrate-Derived Gonadotropic Hormone and its Synthesis” (priority 2004, published 2008).
# How the values were obtained:
# [1] = test system: ovary of Asterina pectinifera; experiment: gonad-stimulating activity: spawning of matured eggs from ovary fragments in a two-fold dilution series; assay type: cell-based; conditions: for EC50(nM) gonad-stimulating activity, Asterina pectinifera: Asterina pectinifera ovary piece in seawater, 25° C., spawning after 1 hr; for gonad-stimulating activity (in words): summary of Table 1, Asterina pectinifera
# Experimental: (§1) Gonad-stimulating activity could be measured by the following methods:
# (§2) Those individuals, whose eggs are highly sensitive to oocyte maturation-inducing hormone, are selected from matured invertebrate female individuals and are separated as test individuals.
# (§3) Ovaries are excised from test individuals into seawater and are cut in small pieces. The assay plate for multiple test samples is filled with 200 μl seawater. Two μl of a test sample for gonad-stimulating activity is diluted to 200 folds by mixing with 398 μl seawater. The half portion (200 μl) is diluted to two fold by mixing with 200 μl seawater in the assay plate. The half portion (200 μl) is further diluted to two fold by mixing with 200 μl seawater in the assay plate. Repeating of the procedure results in preparation of two fold dilution series from 200-folds dilution to 102,400-folds dilution. A small piece of ovary is added to each dilution sample and is allowed to rest at 25° C. The gonad-stimulating activity is evaluated by spawning of matured eggs from a contracted small piece of ovary after 1 hr. The relative gonad-stimulating activity is assessed by the degree of dilution.
# (§4) In the following Examples, gonad-stimulating activity are examined by the following way:
# (§5) Two to three individuals bearing oocyte with high sensitivity of a gonadotropic hormone (1-methyladenine) are selected from several tens of female individuals of matured Asterina pectinifera (or Asterias amurensis) and are separated as test individuals.
# (§6) The selection was performed in the following way:
# (§7) The oocyte maturation-inducing hormone was diluted to 6 different concentrations, i.e. 10^−6 M, 3×10^−7 M, 10^−7 M, 3×10^−8 M, 10^−8 M, and 3×10^−9 M, in seawater, wherein small fragment of ovary was added to the different concentrations of maturation-inducing hormone and was allowed to stand for 60 min at room temperature. Maturation of oocyte was examined under microscope after 60 min to see whether the structure of nuclei in an oocyte was degraded to prepare for next fertilization. The concentration of the oocyte maturation-inducing hormone at maturation was checked and those individuals, which were matured at less than 10^−7 M, were used as test individuals.
# as §3, with “(with tufted morphology) were removed” for “are excised”, “were” for “are”, “into about 5 mm fragments.” for “in small pieces.”, “hr (FIG. 1).” for “hr.”
# [2] = test system: ovary of Asterias amurensis; experiment: as above; assay type: cell-based; conditions: Asterias amurensis ovary piece in seawater, 25° C., spawning after 1 hr
# Experimental: as §1, §2, §3, §4, §5, §6, §7
# as §3, with “(with tufted morphology) were removed” for “are excised”, “were” for “are”, “into about 5 mm fragments.” for “in small pieces.”, “hr (FIG. 1).” for “hr.”
Sequence,"EC50(nM) gonad-stimulating activity, Asterina pectinifera [1]",gonad-stimulating activity (in words) [1],"EC50(nM) gonad-stimulating activity, Asterias amurensis [2]"
"EKYCDDDFHMAVFRTCAVS [GSS-A, synthesized subunit peptide, 19 amino acid residues, molecular weight 2236]",No activity,did not show gonad-stimulating activity,No activity
SEYSGIASYCCLHGCTPSELSVVC [GSS-B],No activity,did not show gonad-stimulating activity,No activity
